pIC50: −log10 of the molar value.
Target: T1, cellular PARG (Homo sapiens, UniProt Q86W56)
T1 construct: endogenous in cells; host or cells: HeLa
Assay: Nuclear PAR accumulation assay (immunofluorescence high-content imaging, MMS-treated HeLa cells)
Type: cell-based
Conditions: 1 hour compound then MMS 50 μg/mL for an additional hour
Description: HeLa cells were plated at 15,000 cells/well in a 96-well plate the day before compound treatment and then treated with varying concentrations of test compound and incubated for 1 hour at 37° C.+5% CO2. Following test compound treatment, methylmethane sulfonate (MMS) was added to a final concentration of 50 μg/mL and the cells were incubated for an additional hour. Following treatment, the cells were fixed with ice cold 95% methanol and the plates sealed and placed at -20° C. for 15 minutes. The cells were then washed once with phosphate buffered saline (PBS) and permeabilized with 0.10% Triton-X 100 for 20 minutes at room temperature. […] The cells were then washed three times with PBS before incubation with a fluorescently conjugated goat anti-mouse antibody (Invitrogen A32723) diluted 1:500 in 5% FBS+0.1% Tween-20+PBS for 1 hour at room temperature. The cells were again washed three times with PBS and the nuclei labeled by incubating with 1 μg/mL DAPI (4′,6-diamidino-2-phenylindole). Nuclear PAR accumulation was evaluated using high-content fluorescence microscopy. Four fields for each well were acquired at 20× magnification resulting in at least 1,000 cells analyzed per well. […] Both the average intensity per nucleus and percent PAR positive cells were quantified. […] Concentration-response-curves and IC50 values were generated using four parameter logistic curve fit software.
Representative data for exemplary compounds is presented in Table 32, Table 33 and Table 34.

T1 sequence (Q86W56 whole entry): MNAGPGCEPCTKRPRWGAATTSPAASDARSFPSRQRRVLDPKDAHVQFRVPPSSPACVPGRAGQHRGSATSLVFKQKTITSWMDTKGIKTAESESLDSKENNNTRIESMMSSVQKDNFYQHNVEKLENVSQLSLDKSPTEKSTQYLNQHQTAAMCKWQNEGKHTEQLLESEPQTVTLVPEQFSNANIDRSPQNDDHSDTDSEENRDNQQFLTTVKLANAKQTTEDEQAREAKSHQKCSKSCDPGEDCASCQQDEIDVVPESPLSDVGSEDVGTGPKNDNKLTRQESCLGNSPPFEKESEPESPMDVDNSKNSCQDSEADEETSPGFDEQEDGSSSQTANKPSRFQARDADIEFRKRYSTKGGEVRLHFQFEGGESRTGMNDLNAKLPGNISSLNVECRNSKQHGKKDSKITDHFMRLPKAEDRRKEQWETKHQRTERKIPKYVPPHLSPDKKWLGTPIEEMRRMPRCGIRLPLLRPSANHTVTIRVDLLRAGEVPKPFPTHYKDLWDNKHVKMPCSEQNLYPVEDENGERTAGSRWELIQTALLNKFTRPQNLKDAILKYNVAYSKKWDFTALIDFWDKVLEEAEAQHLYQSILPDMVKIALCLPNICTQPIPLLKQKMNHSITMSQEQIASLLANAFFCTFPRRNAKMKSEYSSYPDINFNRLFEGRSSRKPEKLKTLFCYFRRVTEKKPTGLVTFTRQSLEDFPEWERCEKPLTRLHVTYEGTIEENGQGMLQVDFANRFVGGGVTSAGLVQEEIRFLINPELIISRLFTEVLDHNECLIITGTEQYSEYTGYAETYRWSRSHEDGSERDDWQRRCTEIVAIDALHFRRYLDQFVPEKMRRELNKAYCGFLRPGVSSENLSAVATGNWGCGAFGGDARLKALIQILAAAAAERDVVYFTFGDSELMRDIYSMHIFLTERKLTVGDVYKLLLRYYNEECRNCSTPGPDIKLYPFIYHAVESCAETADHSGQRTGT

| Structure (SMILES) | pIC50 |
| --- | --- |
| C[C@@H]1CN=C2N(Cc3cn(C)nc3C(F)(F)F)C(=O)c3cc(S(=O)(=O)NC4(C)CC4)cc(Br)c3N21 [Example 23, (R)-9-bromo-1-methyl-4-((1-methyl-3-(trifluoromethyl)-1H-pyrazol-4-yl)methyl)-N-(1-methylcyclopropyl)-5-oxo-1,2,4,5-tetrahydroimidazo[1,2-a]quinazoline-7-sulfonamide] | > 7.00 |
| C[C@@H]1CN=C2N(Cc3cn(C)nc3C(F)F)C(=O)c3cc(S(=O)(=O)NC4(C)CC4)ccc3N21 [Example 24, (R)-4-((3-(difluoromethyl)-1-methyl-1H-pyrazol-4-yl)methyl)-1-methyl-N-(1-methylcyclopropyl)-5-oxo-1,2,4,5-tetrahydroimidazo[1,2-a]quinazoline-7-sulfonamide] | > 7.00 |
| Cc1cc(F)ccc1-c1cc(S(=O)(=O)NC2(C)CC2)cc2c1N1CC(C)(C)N=C1N(Cc1cnn(C)c1)C2=O [Example 25, 9-(4-fluoro-2-methylphenyl)-2,2-dimethyl-4-((1-methyl-1H-pyrazol-4-yl)methyl)-N-(1-methylcyclopropyl)-5-oxo-1,2,4,5-tetrahydroimidazo[1,2-a]quinazoline-7-sulfonamide] | > 7.00 |
| Cn1cc(CN2C(=O)c3cc(S(=O)(=O)NC4(C)CC4)cc(C4=CCCC4)c3N3CCN=C23)cn1 [Example 26, 9-(cyclopent-1-en-1-yl)-4-((1-methyl-1H-pyrazol-4-yl)methyl)-N-(1-methylcyclopropyl)-5-oxo-1,2,4,5-tetrahydroimidazo[1,2-a]quinazoline-7-sulfonamide] | 6.00 to 7.00 |
| C[C@@H]1CN=C2N(Cc3cnn(C)c3)C(=O)c3cc(S(=O)(=O)NC4(C)CC4)cc(N4CCC(O)CC4)c3N21 [Example 27, (R)-9-(4-hydroxypiperidin-1-yl)-1-methyl-4-((1-methyl-1H-pyrazol-4-yl)methyl)-N-(1-methylcyclopropyl)-5-oxo-1,2,4,5-tetrahydroimidazo[1,2-a]quinazoline-7-sulfonamide] | 6.00 to 7.00 |
| Cn1cc(CN2C(=O)c3cc(S(=O)(=O)NC4(C)CC4)ccc3N3C2=NC[C@H]3COc2ccccc2)cn1 [Example 28, (S)-4-((1-methyl-1H-pyrazol-4-yl)methyl)-N-(1-methylcyclopropyl)-5-oxo-1-(phenoxymethyl)-1,2,4,5-tetrahydroimidazo[1,2-a]quinazoline-7-sulfonamide] | > 7.00 |
| Cn1cc(CN2C(=O)c3cc(S(=O)(=O)NC4(C)CC4)ccc3N3C2=NC[C@H]3COc2ccc(F)cc2)cn1 [Example 29, (S)-1-((4-fluorophenoxy)methyl)-4-((1-methyl-1H-pyrazol-4-yl)methyl)-N-(1-methylcyclopropyl)-5-oxo-1,2,4,5-tetrahydroimidazo[1,2-a]quinazoline-7-sulfonamide] | > 7.00 |
| Cn1cc(CN2C(=O)c3cc(S(=O)(=O)NC4(C)CC4)ccc3N3C2=NC[C@H]3COc2cccc(F)c2)cn1 [Example 30, (S)-1-((3-fluorophenoxy)methyl)-4-((1-methyl-1H-pyrazol-4-yl)methyl)-N-(1-methylcyclopropyl)-5-oxo-1,2,4,5-tetrahydroimidazo[1,2-a]quinazoline-7-sulfonamide] | > 7.00 |
| CN(C)CC#C[C@@H]1CN=C2N(Cc3cnn(C)c3)C(=O)c3cc(S(=O)(=O)NC4(C)CC4)ccc3N21 [Example 31, (R)-1-(3-(dimethylamino)prop-1-yn-1-yl)-4-((1-methyl-1H-pyrazol-4-yl)methyl)-N-(1-methylcyclopropyl)-5-oxo-1,2,4,5-tetrahydroimidazo[1,2-a]quinazoline-7-sulfonamide] | > 7.00 |
| Cc1cc(F)ccc1-c1cc(S(=O)(=O)NC2(C)CC2)cc2c1N1C(=NC[C@H]1C)N(Cc1cnn(C)c1)C2=O [Example 32, (R)-9-(4-fluoro-2-methylphenyl)-1-methyl-4-((1-methyl-1H-pyrazol-4-yl)methyl)-N-(1-methylcyclopropyl)-5-oxo-1,2,4,5-tetrahydroimidazo[1,2-a]quinazoline-7-sulfonamide] | > 7.00 |
| C[C@@H]1CN=C2N(C)C(=O)c3cc(S(=O)(=O)NC4(C)CC4)cc(N4CCN(C(=O)N(C)C)CC4)c3N21 [Example 33, (R)-4-(1,4-dimethyl-7-(N-(1-methylcyclopropyl)sulfamoyl)-5-oxo-1,2,4,5-tetrahydroimidazo[1,2-a]quinazolin-9-yl)-N,N-dimethylpiperazine-1-carboxamide] | > 7.00 |
| CN1C(=O)c2cc(S(=O)(=O)NC3(C)CC3)cc(Br)c2N2C1=NC[C@H]2C#CC1CC1 [Example 34, (R)-9-bromo-1-(cyclopropylethynyl)-4-methyl-N-(1-methylcyclopropyl)-5-oxo-1,2,4,5-tetrahydroimidazo[1,2-a]quinazoline-7-sulfonamide] | > 7.00 |
| Cn1cc(C#C[C@@H]2CN=C3N(Cc4cnn(C)c4)C(=O)c4cc(S(=O)(=O)NC5(C)CC5)ccc4N32)cn1 [Example 35, (R)-1-((1-methyl-1H-pyrazol-4-yl)ethynyl)-4-((1-methyl-1H-pyrazol-4-yl)methyl)-N-(1-methylcyclopropyl)-5-oxo-1,2,4,5-tetrahydroimidazo[1,2-a]quinazoline-7-sulfonamide] | > 7.00 |
| Cn1cc(CN2C(=O)c3cc(S(=O)(=O)NC4(C)CC4)ccc3N3C2=NC[C@H]3C#Cc2ccccc2)cn1 [Example 36, (R)-4-((1-methyl-1H-pyrazol-4-yl)methyl)-N-(1-methylcyclopropyl)-5-oxo-1-(phenylethynyl)-1,2,4,5-tetrahydroimidazo[1,2-a]quinazoline-7-sulfonamide] | > 7.00 |
| C[C@@H]1CN=C2N(Cc3cnn(C)c3)C(=O)c3cc(S(=O)(=O)NC4(C)CC4)cc(N4CCC(C(=O)N(C)C)CC4)c3N21 [Example 37, (R)-N,N-dimethyl-1-(1-methyl-4-((1-methyl-1H-pyrazol-4-yl)methyl)-7-(N-(1-methylcyclopropyl)sulfamoyl)-5-oxo-1,2,4,5-tetrahydroimidazo[1,2-a]quinazolin-9-yl)piperidine-4-carboxamide] | 6.00 to 7.00 |
| C#C[C@@H]1CN=C2N(C)C(=O)c3cc(S(=O)(=O)NC4(C)CC4)cc(Br)c3N21 [Example 38, (R)-9-bromo-1-ethynyl-4-methyl-N-(1-methylcyclopropyl)-5-oxo-1,2,4,5-tetrahydroimidazo[1,2-a]quinazoline-7-sulfonamide] | > 7.00 |
| Cn1cc(CN2C(=O)c3cc(S(=O)(=O)NC4(C)CC4)ccc3N3C2=NC[C@H]3CC(F)(F)F)cn1 [Example 39, (R)-4-((1-methyl-1H-pyrazol-4-yl)methyl)-N-(1-methylcyclopropyl)-5-oxo-1-(2,2,2-trifluoroethyl)-1,2,4,5-tetrahydroimidazo[1,2-a]quinazoline-7-sulfonamide] | > 7.00 |
| Cn1cc(CN2C(=O)c3cc(S(=O)(=O)NC4(C)CC4)ccc3N3C2=NC[C@H]3/C=C/c2ccccc2)cn1 [Example 40, (R,E)-4-((1-methyl-1H-pyrazol-4-yl)methyl)-N-(1-methylcyclopropyl)-5-oxo-1-styryl-1,2,4,5-tetrahydroimidazo[1,2-a]quinazoline-7-sulfonamide] | > 7.00 |
| C[C@@H]1CN=C2N(Cc3cnn(C)c3)C(=O)c3cc(S(=O)(=O)NC4(C)CC4)sc3N21 [Example 41, (R)-8-methyl-5-((1-methyl-1H-pyrazol-4-yl)methyl)-N-(1-methylcyclopropyl)-4-oxo-4,5,7,8-tetrahydroimidazo[1,2-a]thieno[3,2-e]pyrimidine-2-sulfonamide] | 6.00 to 7.00 |

From patent US20260285875A1, “INHIBITORS OF PARG” (858 Therapeutics, Inc., priority 2023, published 2026)
